Results taken from paper PMC7830597, “Derivatives of Tenuazonic Acid as Potential New Multi-Target Anti-Alzheimer’s Disease Agents” (Biomolecules, 2021).
Marks after values point to notes of the source that are not given here.

Test: Metal complexation, Fe(III)/L system
Assay type: physicochemical
Conditions: for log β(FemHhLl): spectrophotometric, 15% w/w DMSO/water
Experimental: The chelating ability of compound 1 towards Fe(III), Cu(II) and Zn(II) was evaluated through the determination of the global formation constants of the complexes via pH-potentiometric and spectrophotometric titrations of the respective 1:1, 1:2 and 1:3 M/L systems in 15% w/w DMSO/water. The fitting analysis of the respective pH-potentiometric curves was done via Hyperquad 2008 [36] while that of the spectrophotometric absorption spectra was performed using Psequad, and the found equilibrium models are presented in Table 2. Compound 1 was chosen because of its better profile after preliminary assays (i.e., good AChE inhibition and antioxidant activity, as well as good ability to inhibit Cu^2+-induced Aβ aggregation).
To the best of our knowledge, the determination of stability formation constants of the complexes with TA has not yet been done and so the herein calculated values for compound 1 cannot be compared with those from the literature. The metal complexation equilibrium models of compound 1 were determined by the following process: for the Fe/L and Cu/L systems, only spectrophotometric data was used due to the better quality of the experimental results obtained [the 1:1 titration (e.g., Figure 7)] allowed the determination of the stability constant corresponding to the ML species and then this value, as well as the respective spectra, was introduced in the fitting of Fe/L 1:3 or Cu/L 1:2 data]; for the Zn/L system, potentiometric data was used. For the found metal complex models contained in Table 2, MH-2L, MH-1L2 and MH-2L2 correspond to mixed ligand-hydroxo metal complexes.
Titrations of the selected compound 1, alone or in the presence of the metal ions, were accomplished in a 15% w/w DMSO/H2O medium, at T = 25.0 ± 0.1 °C and ionic strength (I) 0.1 M KCl, by using 0.1 M KOH as titrant. Both glass and Ag/AgCl reference electrodes were previously conditioned in different DMSO/H2O mixtures of increasing DMSO % composition and the response of the glass electrode was evaluated by strong acid–strong base (HCl/KOH) calibrations with the determination of the Nernst parameters by Gran’s method. […] The spectrophotometric measurements were carried out in a 250–320 nm wavelength range at pH ca 2.5-8.0. Under the stated experimental conditions, the pKw value (13.6) was determined and subsequently used in the computations. The stepwise protonation constants of the ligands, Ki = [HiL]/[Hi-1L][H], and the overall metal–complex stability constants, β (MmHhL1) = [MmHhLl]/[M]^m[H]^h[L]^l, were calculated by fitting the pH-potentiometric and spectrophotometric data with, respectively, Hyperquad 2008 [36] and Psequad programs. The metal hydrolysis model was determined under the defined experimental conditions (I = 0.1 M KCl, 15% w/w DMSO/H2O, T = 25.0 ± 0.1 °C) and the following values of stability constants were included in the fitting of the experimental data towards the equilibrium models related to the Fe(III)/L, Cu(II)/L and Zn(II)/L systems: log β (FeH-1) = −1.79, log β (FeH-2) = −4.9, log β (FeH-4) = −20.0; log β (Cu2H-2) = −9.5; log β (ZnH-1) = −8.6, log β (ZnH-3) = −27.2, log β (Zn2H-1) = −8.6. The species distribution curves were obtained with the Hyss program.

## CCOC(=O)C1=C(O)C(C(C)C)NC1=O (centres unmarked) [Compound 1, Ethyl 4-hydroxy-5-isopropyl-2-oxo-2,5-dihydro-1H-pyrrole-3-carboxylate]
pH 7.4, CL/CM = 10, CM = 10^−6 M
  pFe (pM = −log[M]): 16.6
Species (1-22)
  log β(FemHhLl): 5.83(8) ^d
Species (101)
  log β(FemHhLl): 9.46(7) ^d
Species (102)
  log β(FemHhLl): 14.30(7) ^d
Species (103)
  log β(FemHhLl): 19.4(1) ^d
